Measured values published in BindingDB's records for doi:10.1021/acs.jmedchem.9b00607 (National Institute On Drug Abuse-Intramural Research Program, 2019).

Molecular target: D(3) dopamine receptor (Homo sapiens, UniProt P35462)
Test: Agonist activity at human D3 receptor expressed in CHO cells assessed as stimulation of […] mitogenesis

Sequence of D(3) dopamine receptor (P35462 as listed by the source): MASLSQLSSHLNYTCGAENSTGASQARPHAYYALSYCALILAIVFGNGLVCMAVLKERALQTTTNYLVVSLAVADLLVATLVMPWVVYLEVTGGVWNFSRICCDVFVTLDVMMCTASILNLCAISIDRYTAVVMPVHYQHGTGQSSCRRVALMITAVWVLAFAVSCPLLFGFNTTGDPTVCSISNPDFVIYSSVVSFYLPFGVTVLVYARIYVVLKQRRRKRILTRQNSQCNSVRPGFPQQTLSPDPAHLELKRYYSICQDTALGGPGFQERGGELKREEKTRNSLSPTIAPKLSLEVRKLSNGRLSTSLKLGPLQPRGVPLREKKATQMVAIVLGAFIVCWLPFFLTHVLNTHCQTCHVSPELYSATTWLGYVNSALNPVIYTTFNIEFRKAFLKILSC

| Structure (SMILES) | EC50 |
| --- | --- |
| CCc1cc(Cl)c(OC)c(N2CCN(C[C@H](O)CCNC(=O)c3cc4ccccc4[nH]3)CC2)c1 | > 3.2 µM |
| CCc1cc(Cl)c(OC)c(N2CCN(C[C@@H](O)CCNC(=O)c3cc4ccccc4[nH]3)CC2)c1 | > 6.8 µM |
